Source: the NIST ThermoML archive (doi:10.1016/j.jct.2015.09.022)
± gives the expanded uncertainty stated by the source.

Test: xn = mol fraction of the nth substance listed
Details: 100.7 kPa, Liquid; for viscosity: Falling or rolling sphere viscometry; for speed of sound: Frequency=3 MHz, Sing-around technique in a fixed-path interferometer; for mass density: Vibrating tube method

CCCC=O [butanal] + CCCC[n+]1ccn(C)c1.O=S(=O)([N-]S(=O)(=O)C(F)(F)F)C(F)(F)F
Details	mass density [kg/m3]	speed of sound [m/s]	viscosity [mPa·s]
298.15 K, x2 = 0	796.99 ± 0.21	1193.8 ± 1.4	0.43 ± 0.03
298.15 K, x2 = 0.0222	–	1192 ± 1.4	–
298.15 K, x2 = 0.0464	–	1190.7 ± 1.4	–
298.15 K, x2 = 0.0748	–	1189.2 ± 1.4	–
298.15 K, x2 = 0.1056	979.73 ± 0.46	1187.5 ± 1.4	1.53 ± 0.09
298.15 K, x2 = 0.2135	1105.53 ± 0.33	1191.7 ± 1.4	3.32 ± 0.2
298.15 K, x2 = 0.3088	1185.23 ± 0.32	1196.2 ± 1.4	5.62 ± 0.34
298.15 K, x2 = 0.4153	1251.86 ± 0.36	1200.5 ± 1.4	8.98 ± 0.55
298.15 K, x2 = 0.5025	1294.27 ± 0.4	1204.2 ± 1.5	12.42 ± 0.75
298.15 K, x2 = 0.5987	1332.31 ± 0.44	1208.6 ± 1.5	16.22 ± 0.99
298.15 K, x2 = 0.6852	1360.82 ± 0.48	1213.2 ± 1.5	20.37 ± 1.2
298.15 K, x2 = 0.7729	1385.61 ± 0.52	1217.5 ± 1.5	25.55 ± 1.6
298.15 K, x2 = 0.8852	1412.72 ± 0.57	1223.9 ± 1.5	34.29 ± 2.1
303.15 K, x2 = 0	791.8 ± 0.21	1172.7 ± 1.4	0.4 ± 0.02
303.15 K, x2 = 0.0222	–	1171.6 ± 1.4	–
303.15 K, x2 = 0.0464	–	1170.9 ± 1.4	–
303.15 K, x2 = 0.0748	–	1170 ± 1.4	–
303.15 K, x2 = 0.1056	975.4 ± 0.34	1169 ± 1.4	1.24 ± 0.08
303.15 K, x2 = 0.2135	1101.73 ± 0.31	1173.6 ± 1.4	2.62 ± 0.16
303.15 K, x2 = 0.3088	1181.18 ± 0.32	1179.9 ± 1.4	4.29 ± 0.26
303.15 K, x2 = 0.4153	1247.94 ± 0.36	1185.4 ± 1.4	6.76 ± 0.41
303.15 K, x2 = 0.5025	1290.44 ± 0.4	1189.5 ± 1.5	9.23 ± 0.56
303.15 K, x2 = 0.5987	1328.49 ± 0.44	1195.7 ± 1.5	12.08 ± 0.74
303.15 K, x2 = 0.6852	1356.74 ± 0.48	1200.6 ± 1.5	15.05 ± 0.92
303.15 K, x2 = 0.7729	1381.37 ± 0.52	1206.6 ± 1.5	19.07 ± 1.2
303.15 K, x2 = 0.8852	1408.37 ± 0.56	1213.6 ± 1.5	26.85 ± 1.6
308.15 K, x2 = 0	786.41 ± 0.21	1151.6 ± 1.4	0.39 ± 0.02
308.15 K, x2 = 0.0222	–	1150.1 ± 1.4	–
308.15 K, x2 = 0.0464	–	1149.4 ± 1.4	–
308.15 K, x2 = 0.0748	–	1148.8 ± 1.4	–
308.15 K, x2 = 0.1056	971.06 ± 0.34	1149.6 ± 1.4	0.98 ± 0.06
308.15 K, x2 = 0.2135	1097.08 ± 0.31	1154.8 ± 1.4	1.98 ± 0.12
308.15 K, x2 = 0.3088	1176.97 ± 0.32	1161.6 ± 1.4	3.18 ± 0.19
308.15 K, x2 = 0.4153	1243.96 ± 0.36	1168.7 ± 1.4	4.87 ± 0.3
308.15 K, x2 = 0.5025	1286.66 ± 0.4	1174.3 ± 1.5	6.66 ± 0.41
308.15 K, x2 = 0.5987	1324.67 ± 0.44	1180.5 ± 1.5	8.73 ± 0.53
308.15 K, x2 = 0.6852	1352.96 ± 0.48	1186.4 ± 1.5	10.93 ± 0.67
308.15 K, x2 = 0.7729	1377.44 ± 0.51	1193.6 ± 1.5	14.71 ± 0.89
308.15 K, x2 = 0.8852	1404.09 ± 0.56	1201 ± 1.5	21.85 ± 1.3
313.15 K, x2 = 0	781.37 ± 0.21	1130.6 ± 1.4	0.36 ± 0.02
313.15 K, x2 = 0.0222	–	1129.3 ± 1.4	–
313.15 K, x2 = 0.0464	–	1128.5 ± 1.4	–
313.15 K, x2 = 0.0748	–	1127.9 ± 1.4	–
313.15 K, x2 = 0.1056	966.81 ± 0.35	1129.2 ± 1.4	0.8 ± 0.05
313.15 K, x2 = 0.2135	1092.97 ± 0.31	1136.5 ± 1.4	1.53 ± 0.09
313.15 K, x2 = 0.3088	1173.06 ± 0.32	1144.7 ± 1.4	2.39 ± 0.15
313.15 K, x2 = 0.4153	1240.28 ± 0.36	1152.6 ± 1.4	3.69 ± 0.22
313.15 K, x2 = 0.5025	1282.97 ± 0.39	1159.6 ± 1.4	5.13 ± 0.31
313.15 K, x2 = 0.5987	1320.95 ± 0.43	1166.8 ± 1.5	6.82 ± 0.41
313.15 K, x2 = 0.6852	1349.19 ± 0.47	1174.2 ± 1.5	8.86 ± 0.54
313.15 K, x2 = 0.7729	1373.41 ± 0.51	1181.8 ± 1.5	11.8 ± 0.72
313.15 K, x2 = 0.8852	1399.8 ± 0.56	1189.6 ± 1.5	17.93 ± 1.1
318.15 K, x2 = 0	776.39 ± 0.21	1109.6 ± 1.4	0.35 ± 0.02
318.15 K, x2 = 0.0222	–	1108.4 ± 1.4	–
318.15 K, x2 = 0.0464	–	1107.7 ± 1.4	–
318.15 K, x2 = 0.0748	–	1107 ± 1.4	–
318.15 K, x2 = 0.1056	961.43 ± 0.35	1109 ± 1.4	0.69 ± 0.04
318.15 K, x2 = 0.2135	1088.71 ± 0.31	1118.4 ± 1.4	1.23 ± 0.07
318.15 K, x2 = 0.3088	1169.26 ± 0.31	1128.2 ± 1.4	1.96 ± 0.12
318.15 K, x2 = 0.4153	1236.78 ± 0.36	1137.7 ± 1.4	2.96 ± 0.18
318.15 K, x2 = 0.5025	1279.56 ± 0.39	1145.2 ± 1.5	4.06 ± 0.25
318.15 K, x2 = 0.5987	1317.62 ± 0.43	1153.1 ± 1.5	5.62 ± 0.34
318.15 K, x2 = 0.6852	1345.51 ± 0.47	1162.1 ± 1.5	7.72 ± 0.47
318.15 K, x2 = 0.7729	1369.39 ± 0.51	1170.1 ± 1.5	10.43 ± 0.63
318.15 K, x2 = 0.8852	1395.55 ± 0.55	1179.3 ± 1.5	15.49 ± 0.94
323.15 K, x2 = 0	771.3 ± 0.22	1088.8 ± 1.4	0.32 ± 0.02
323.15 K, x2 = 0.0222	–	1087.5 ± 1.4	–
323.15 K, x2 = 0.0464	–	1086.7 ± 1.4	–
323.15 K, x2 = 0.0748	–	1086.1 ± 1.4	–
323.15 K, x2 = 0.1056	957.54 ± 0.6	1087.8 ± 1.4	0.56 ± 0.03
323.15 K, x2 = 0.2135	1084.6 ± 0.42	1099.2 ± 1.4	0.94 ± 0.06
323.15 K, x2 = 0.3088	1165.17 ± 0.37	1110.2 ± 1.4	1.43 ± 0.09
323.15 K, x2 = 0.4153	1232.87 ± 0.39	1120.3 ± 1.4	2.24 ± 0.14
323.15 K, x2 = 0.5025	1275.6 ± 0.41	1128.5 ± 1.5	3.07 ± 0.19
323.15 K, x2 = 0.5987	1313.47 ± 0.44	1138.5 ± 1.5	4.43 ± 0.27
323.15 K, x2 = 0.6852	1341.63 ± 0.47	1147.2 ± 1.5	6.21 ± 0.38
323.15 K, x2 = 0.7729	1365.48 ± 0.51	1156.5 ± 1.5	8.42 ± 0.51
323.15 K, x2 = 0.8852	1391.08 ± 0.55	1166.2 ± 1.5	12.99 ± 0.79
